In patent US20250346585A1 (Alexion Pharmaceuticals, Inc., priority 2022, published 2025):
Structures can show the parent of a compound that is named as a salt.

What follows are compounds tested against Human complement C1s enzyme (Homo sapiens (Human), UniProt P09871) (assay: Human C1s enzyme assay). Details: Human C1s enzyme assay of Example 3; read-out: IC50 (Stars).
Assay type: biochemical
In short: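 IC50 derived by nonlinear regression of rate versus concentration, with rate taken from A405 kinetics (30 s intervals, 30 min) after adding 100 μM each Z-L-Lys-SBzl and DTNB. C1s from human serum, 1.16 nM, exposed to compound for 5 min at RT beforehand; buffer 50 mM Tris, 1 M NaCl, pH 7.5.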

Chain of Human complement C1s enzyme (P09871 438-688 limits assumed): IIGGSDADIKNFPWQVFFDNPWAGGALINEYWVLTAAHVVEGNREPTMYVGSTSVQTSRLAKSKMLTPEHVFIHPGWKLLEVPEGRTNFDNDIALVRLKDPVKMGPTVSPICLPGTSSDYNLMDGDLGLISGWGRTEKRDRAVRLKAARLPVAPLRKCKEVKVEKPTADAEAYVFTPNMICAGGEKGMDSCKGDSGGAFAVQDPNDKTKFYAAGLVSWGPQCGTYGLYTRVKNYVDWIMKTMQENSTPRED
Chain of Human complement C1s enzyme (P09871 16-437 partner limits assumed): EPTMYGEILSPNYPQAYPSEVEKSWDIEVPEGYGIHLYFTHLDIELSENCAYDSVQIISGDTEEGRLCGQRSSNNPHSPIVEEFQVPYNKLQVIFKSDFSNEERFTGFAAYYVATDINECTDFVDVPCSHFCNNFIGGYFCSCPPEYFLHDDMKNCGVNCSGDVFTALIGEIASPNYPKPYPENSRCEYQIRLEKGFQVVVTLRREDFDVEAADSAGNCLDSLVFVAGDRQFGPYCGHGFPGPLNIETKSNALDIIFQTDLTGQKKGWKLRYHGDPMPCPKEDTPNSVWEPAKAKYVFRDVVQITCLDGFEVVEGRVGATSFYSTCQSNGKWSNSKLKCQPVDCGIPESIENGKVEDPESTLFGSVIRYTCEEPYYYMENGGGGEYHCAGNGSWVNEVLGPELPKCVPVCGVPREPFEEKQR

IC50, < 100 nM:
C[C@@H](NC(=O)[C@@H]1C[C@@H](OC(F)F)CN1C(=O)CNC(=O)c1ccc(Oc2ccc(Cl)cc2)cc1)c1cc(C(=N)N)cs1 [Compound 43, (2S,4R)—N—((R)-1-(4-carbamimidoylthiophen-2-yl)ethyl)-1-((4-(4-chlorophenoxy)benzoyl)glycyl)-4-(difluoromethoxy)pyrrolidine-2-carboxamide]
COC[C@@]12C[C@@H]1N(C(=O)CNC(=O)c1ccc(Oc3ccc(F)cc3)cc1)[C@H](C(=O)N[C@H](C)c1cc(C(=N)N)cs1)C2 [Compound 44, (1S,3S,5R)—N—((R)-1-(4-carbamimidoylthiophen-2-yl)ethyl)-2-((4-(4-fluorophenoxy)benzoyl)glycyl)-5-(methoxymethyl)-2-azabicyclo[3.1.0]hexane-3-carboxamide]
C[C@H]1C[C@@H](C(=O)N[C@H](C)c2cc(C(=N)N)cs2)N(C(=O)CNC(=O)c2ccc(Oc3ccc(F)cc3)cc2)C1 [Compound 45, (2S,4S)—N—((R)-1-(4-carbamimidoylthiophen-2-yl)ethyl)-1-((4-(4-fluorophenoxy)benzoyl)glycyl)-4-methylpyrrolidine-2-carboxamide]
C[C@H]1C[C@@H](C(=O)N[C@H](C)c2cc(C(=N)N)cs2)N(C(=O)CNC(=O)c2ccc3c(c2)-c2ccccc2C3(F)F)C1 [Compound 46, (2S,4S)—N—((R)-1-(4-carbamimidoylthiophen-2-yl)ethyl)-1-((9,9-difluoro-9H-fluorene-3-carbonyl)glycyl)-4-methylpyrrolidine-2-carboxamide]
CC(C)c1ccc(Oc2ccc(C(=O)NCC(=O)N3C[C@H](OC(F)F)C[C@H]3C(=O)N[C@H](C)c3cc(C(=N)N)cs3)cc2)cc1 [Compound 47, (2S,4R)—N—((R)-1-(4-carbamimidoylthiophen-2-yl)ethyl)-4-(difluoromethoxy)-1-((4-(4-isopropylphenoxy)benzoyl)glycyl)pyrrolidine-2-carboxamide]
N=C(N)c1csc(CNC(=O)[C@@H]2CC3(CN2C(=O)CNC(=O)c2ccc(-c4ccccc4)cn2)OCCO3)c1 [Compound 48, (S)—N-((4-carbamimidoylthiophen-2-yl)methyl)-7-((5-phenylpicolinoyl)glycyl)-1,4-dioxa-7-azaspiro[4.4]nonane-8-carboxamide]
C[C@@H](NC(=O)[C@@H]1C[C@@H](OC(F)F)CN1C(=O)CNC(=O)c1ccc(Oc2ccc(C#N)cc2)cc1)c1cc(C(=N)N)cs1 [Compound 49, (2S,4R)—N—((R)-1-(4-carbamimidoylthiophen-2-yl)ethyl)-1-((4-(4-cyanophenoxy)benzoyl)glycyl)-4-(difluoromethoxy)pyrrolidine-2-carboxamide]
N=C(N)c1csc(CNC(=O)[C@@H]2C[C@@H](OC(F)F)CN2C(=O)CNC(=O)c2ccc3c(c2)-c2ccccc2C3(F)F)c1 [Compound 50, (2S,4R)—N-((4-carbamimidoylthiophen-2-yl)methyl)-1-((9,9-difluoro-9H-fluorene-3-carbonyl)glycyl)-4-(difluoromethoxy)pyrrolidine-2-carboxamide]
N=C(N)c1csc(CNC(=O)[C@@H]2C[C@](F)(CF)CN2C(=O)CNC(=O)c2ccc3c(c2)-c2ccccc2C3(F)F)c1 [Compound 52, (2S,4R)—N-((4-carbamimidoylthiophen-2-yl)methyl)-1-((9,9-difluoro-9H-fluorene-3-carbonyl)glycyl)-4-fluoro-4-(fluoromethyl)pyrrolidine-2-carboxamide]
C[C@@H](NC(=O)[C@@H]1C[C@]2(CO)C[C@@H]2N1C(=O)CNC(=O)c1ccc2c(c1)-c1ccccc1C2(F)F)c1cc(C(=N)N)cs1 [Compound 53, (1S,3S,5R)—N—((R)-1-(4-carbamimidoylthiophen-2-yl)ethyl)-2-((9,9-difluoro-9H-fluorene-3-carbonyl)glycyl)-5-(hydroxymethyl)-2-azabicyclo [3.1.0]hexane-3-carboxamide]
C[C@@H](NC(=O)[C@@H]1C[C@@H](S(C)(=O)=O)CN1C(=O)CNC(=O)c1ccc(Oc2ccc(F)cc2)cc1)c1cc(C(=N)N)cs1 [Compound 54, (2S,4R)—N—((R)-1-(4-carbamimidoylthiophen-2-yl)ethyl)-1-((4-(4-fluorophenoxy)benzoyl)glycyl)-4-(methylsulfonyl)pyrrolidine-2-carboxamide]
N=C(N)c1csc(CNC(=O)[C@@H]2CC3(CN2C(=O)CNC(=O)c2ccc4c(c2)-c2ccccc2C4(F)F)OCCO3)c1 [Compound 55, (S)—N-((4-carbamimidoylthiophen-2-yl)methyl)-7-((9,9-difluoro-9H-fluorene-3-carbonyl)glycyl)-1,4-dioxa-7-azaspiro[4.4]nonane-8-carboxamide]
C[C@@H](NC(=O)[C@@H]1CC2(CN1C(=O)CNC(=O)c1ccc3c(c1)-c1ccccc1C3(F)F)OCCO2)c1ccc(C(=N)N)s1 [Compound 56]
C[C@@H](NC(=O)[C@@H]1C[C@@H](OC(F)F)CN1C(=O)CNC(=O)c1ccc(Oc2ccc(F)cc2)cc1)c1ccc(C(=N)N)s1 [Compound 57, (2S,4R)—N—((R)-1-(5-carbamimidoylthiophen-2-yl)ethyl)-4-(difluoromethoxy)-1-((4-(4-fluorophenoxy)benzoyl)glycyl)pyrrolidine-2-carboxamide]
COC[C@@]1(F)C[C@@H](C(=O)NCc2cc(C(=N)N)cs2)N(C(=O)CNC(=O)c2ccc3c(c2)-c2ccccc2C3(F)F)C1 [Compound 58, (2S,4R)—N-((4-carbamimidoylthiophen-2-yl)methyl)-1-((9,9-difluoro-9H-fluorene-3-carbonyl)glycyl)-4-fluoro-4-(methoxymethyl)pyrrolidine-2-carboxamide]
Cc1ccccc1[C@H]1C[C@@H](C(=O)N[C@H](C)c2cc(C(=N)N)cs2)N(C(=O)CNC(=O)c2ccc(Oc3ccc(F)cc3)cc2)C1 [Compound 59, (2S,4R)—N—((R)-1-(4-carbamimidoylthiophen-2-yl)ethyl)-1-((4-(4-fluorophenoxy)benzoyl)glycyl)-4-(o-tolyl)pyrrolidine-2-carboxamide]
CC1(C)c2ccccc2-c2cc(C(=O)NCC(=O)N3CC4(C[C@H]3C(=O)NCc3cc(C(=N)N)cs3)OCCO4)ccc21 [Compound 60, (S)—N-((4-carbamimidoylthiophen-2-yl)methyl)-7-((9,9-dimethyl-9H-fluorene-3-carbonyl)glycyl)-1,4-dioxa-7-azaspiro[4.4]nonane-8-carboxamide]
C[C@@H](NC(=O)[C@@H]1C[C@@H](S(C)(=O)=O)CN1C(=O)CNC(=O)c1ccc2c(c1)-c1ccccc1C2(F)F)c1cc(C(=N)N)cs1 [Compound 61, (2S,4R)—N—((R)-1-(4-carbamimidoylthiophen-2-yl)ethyl)-1-((9,9-difluoro-9H-fluorene-3-carbonyl)glycyl)-4-(methylsulfonyl)pyrrolidine-2-carboxamide]
C[C@@H]1C[C@@H](C(=O)N[C@H](C)c2cc(C(=N)N)cs2)N(C(=O)CNC(=O)c2ccc3c(c2)-c2ccccc2C3(F)F)C1 [Compound 62, (2S,4R)—N—((R)-1-(4-carbamimidoylthiophen-2-yl)ethyl)-1-((9,9-difluoro-9H-fluorene-3-carbonyl)glycyl)-4-methylpyrrolidine-2-carboxamide]
C[C@@H]1C[C@@H](C(=O)N[C@H](C)c2cc(C(=N)N)cs2)N(C(=O)CNC(=O)c2ccc(Oc3ccc(F)cc3)cc2)C1 [Compound 63, (2S,4R)—N—((R)-1-(4-carbamimidoylthiophen-2-yl)ethyl)-1-((4-(4-fluorophenoxy)benzoyl)glycyl)-4-methylpyrrolidine-2-carboxamide]
C[C@@H](NC(=O)[C@@H]1C[C@@H](OC(F)F)CN1C(=O)CNC(=O)c1ccc(Oc2ccc(C3CC3)cc2)cc1)c1cc(C(=N)N)cs1 [Compound 64, (2S,4R)—N—((R)-1-(4-carbamimidoylthiophen-2-yl)ethyl)-1-((4-(4-cyclopropylphenoxy)benzoyl)glycyl)-4-(difluoromethoxy)pyrrolidine-2-carboxamide hydrochloride]
C[C@@H](NC(=O)[C@@H]1C[C@@H](OC(F)F)CN1C(=O)CNC(=O)c1ccc(Oc2ccc(C(F)F)cc2)cc1)c1cc(C(=N)N)cs1 [Compound 65, (2S,4R)—N—((R)-1-(4-carbamimidoylthiophen-2-yl)ethyl)-4-(difluoromethoxy)-1-((4-(4-(difluoromethyl)phenoxy)benzoyl)glycyl)pyrrolidine-2-carboxamide]
C[C@@H](NC(=O)[C@@H]1CC2(CN1C(=O)CNC(=O)c1cc3ccc1CCc1ccc(cc1)CC3)OCCO2)c1cc(C(=N)N)cs1 [Compound 66, (S)-7-((1,4(1,4)-dibenzenacyclohexaphane-1^2-carbonyl)glycyl)-N—((R)-1-(4-carbamimidoylthiophen-2-yl)ethyl)-1,4-dioxa-7-azaspiro[4.4]nonane-8-carboxamide]
C[C@@H](NC(=O)[C@@H]1C[C@]2(C)C[C@@H]2N1C(=O)CNC(=O)c1ccc(Oc2ccc(F)cc2)cc1)c1ccc(C(=N)N)s1 [Compound 67, (1S,3S,5S)—N—((R)-1-(5-carbamimidoylthiophen-2-yl)ethyl)-2-((4-(4-fluorophenoxy)benzoyl)glycyl)-5-methyl-2-azabicyclo[3.1.0]hexane-3-carboxamide]
COC[C@@]1(F)C[C@@H](C(=O)NCc2ccc(C(=N)N)s2)N(C(=O)CNC(=O)c2ccc(Oc3ccc(F)cc3)cc2)C1 [Compound 68, (2S,4R)—N-((5-carbamimidoylthiophen-2-yl)methyl)-4-fluoro-1-((4-(4-fluorophenoxy)benzoyl)glycyl)-4-(methoxymethyl)pyrrolidine-2-carboxamide]
